Values of other authors in patent publication US20120003311A9, “METHOD FOR CONTROLLED RELEASE OF AN ACID-UNSTABLE PHYSIOLOGICALLY ACTIVE SUBSTANCE” (EISAI R&D MANAGEMENT CO., LTD., priority 2004, published 2012).

Key:
[1] = descending colon vs jejunum

Structure (SMILES)	half-life at pH 7 [hours]	absorption rate in the descending colon as percentage of that of the jejunum [1] [%]
COc1ccnc(C[S+]([O-])c2nc3cc(OC(F)F)ccc3[nH]2)c1OC (centres unmarked) [pantoprazole]	39	–
COCCCOc1ccnc(C[S+]([O-])c2nc3ccccc3[nH]2)c1C (centres unmarked) [rabeprazole sodium]	–	≤ 20
